Experimental data: publication PMC7909954 (eLife, 2021)
“And” between values parts separate entries of the source, which are not always exact repeats. Equal values may be shown once. Read-outs that look alike come from different tables or passages of the source.

How the values were obtained:
mMOR [1] = molecular target: T1, mMOR (Mus musculus, UniProt P42866); assay: biochemical; details: for EC50: EC50 mMOR [35S]GTPγS, ± SEM; for Emax: read-out: Emax mMOR [35S]GTPγS
mDOR [2] = molecular target: T2, mDOR (Mus musculus, UniProt P32300); details: binding assays
T2 sequence (P32300 whole entry): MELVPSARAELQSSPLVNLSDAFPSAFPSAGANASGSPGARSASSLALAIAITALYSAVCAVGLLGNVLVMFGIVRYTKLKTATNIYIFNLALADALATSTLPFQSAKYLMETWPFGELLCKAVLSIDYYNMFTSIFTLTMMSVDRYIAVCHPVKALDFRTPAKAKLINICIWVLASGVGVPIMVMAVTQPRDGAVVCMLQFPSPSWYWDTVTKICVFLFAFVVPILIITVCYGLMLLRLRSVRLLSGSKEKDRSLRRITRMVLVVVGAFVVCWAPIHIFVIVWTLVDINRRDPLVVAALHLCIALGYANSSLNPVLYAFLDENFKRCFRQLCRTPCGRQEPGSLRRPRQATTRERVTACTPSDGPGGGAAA

DOR [3] = molecular target: T3, DOR (Homo sapiens, UniProt P41143); assay: cell-based; details: for EC50: EC50 cAMP inhibition hDOR; for Emax: HEK-293T, read-out: Emax% cAMP inhibition hDOR
T3 sequence (P41143 whole entry): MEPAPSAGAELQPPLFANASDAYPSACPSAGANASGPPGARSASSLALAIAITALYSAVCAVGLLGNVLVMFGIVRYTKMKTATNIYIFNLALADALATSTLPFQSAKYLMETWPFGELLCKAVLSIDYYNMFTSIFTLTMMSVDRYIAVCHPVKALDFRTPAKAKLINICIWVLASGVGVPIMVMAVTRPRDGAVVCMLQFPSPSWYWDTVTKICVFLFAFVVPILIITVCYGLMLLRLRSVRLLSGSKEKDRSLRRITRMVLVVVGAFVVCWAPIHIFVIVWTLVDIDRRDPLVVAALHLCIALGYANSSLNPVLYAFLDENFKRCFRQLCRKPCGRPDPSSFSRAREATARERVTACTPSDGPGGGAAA

mMOR [4] = molecular target: T1, mMOR; assay: cell-based; details: for EC50: EC50 G protein activation (BRET) mMOR; for Emax: HEK-293T, read-out: Emax% G protein activation (BRET) mMOR
KOR [5] = molecular target: T4, KOR (Homo sapiens, UniProt P41145); details: for Bias factor (cAMP-Tango) hKOR: >1 G protein bias, <1 arrestin bias; for Bias factor (cAMP-Tango) hKOR / ΔlogRA Tango hKOR / ΔlogRA cAMP hKOR: vs U50,488h; for Log RA cAMP hKOR / LogRA Tango hKOR: transduction coefficient log(T/KA)
T4 sequence (P41145 whole entry): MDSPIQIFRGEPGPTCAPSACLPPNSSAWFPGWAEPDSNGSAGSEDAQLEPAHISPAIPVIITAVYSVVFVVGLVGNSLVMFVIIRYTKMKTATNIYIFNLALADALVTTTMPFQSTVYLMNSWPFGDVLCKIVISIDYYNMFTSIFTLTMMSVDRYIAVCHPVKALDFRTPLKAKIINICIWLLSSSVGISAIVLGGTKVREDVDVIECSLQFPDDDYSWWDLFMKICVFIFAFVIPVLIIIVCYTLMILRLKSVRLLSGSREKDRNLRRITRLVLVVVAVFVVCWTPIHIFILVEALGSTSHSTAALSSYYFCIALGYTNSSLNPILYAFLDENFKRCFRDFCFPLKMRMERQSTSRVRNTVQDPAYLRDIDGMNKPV

rKOR [6] = molecular target: T5, rKOR (Rattus norvegicus, UniProt P34975); details: BRET, rodent receptors
T5 sequence (P34975 whole entry): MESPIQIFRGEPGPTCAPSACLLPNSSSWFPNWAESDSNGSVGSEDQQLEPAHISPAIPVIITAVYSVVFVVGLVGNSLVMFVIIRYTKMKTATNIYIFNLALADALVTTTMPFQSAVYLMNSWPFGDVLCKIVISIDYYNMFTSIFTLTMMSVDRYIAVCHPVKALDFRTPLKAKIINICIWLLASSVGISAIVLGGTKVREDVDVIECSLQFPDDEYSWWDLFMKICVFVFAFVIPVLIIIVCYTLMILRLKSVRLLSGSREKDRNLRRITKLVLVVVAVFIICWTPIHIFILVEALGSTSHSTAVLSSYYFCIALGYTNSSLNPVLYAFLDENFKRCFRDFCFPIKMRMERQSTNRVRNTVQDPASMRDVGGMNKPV

[7] = system: MOR KO, KOR KO and DOR KO mice; assay: 55°C warm-water tail-withdrawal assay in opioid receptor knock out mice; type: in vivo, mouse
DOR [8] = molecular target: T3, DOR; assay: cell-based; details: for EC50: Tango; for Emax: HTLA, read-out: Emax% arrestin recruitment hDOR
mDOR [9] = molecular target: T2, mDOR; assay: cell-based; details: for EC50: EC50 G protein activation (BRET) mDOR; for Emax: HEK-293T, read-out: Emax% G protein activation (BRET) mDOR
MOR [10] = molecular target: T6, MOR (Homo sapiens, UniProt P35372)
T6 sequence (P35372 whole entry): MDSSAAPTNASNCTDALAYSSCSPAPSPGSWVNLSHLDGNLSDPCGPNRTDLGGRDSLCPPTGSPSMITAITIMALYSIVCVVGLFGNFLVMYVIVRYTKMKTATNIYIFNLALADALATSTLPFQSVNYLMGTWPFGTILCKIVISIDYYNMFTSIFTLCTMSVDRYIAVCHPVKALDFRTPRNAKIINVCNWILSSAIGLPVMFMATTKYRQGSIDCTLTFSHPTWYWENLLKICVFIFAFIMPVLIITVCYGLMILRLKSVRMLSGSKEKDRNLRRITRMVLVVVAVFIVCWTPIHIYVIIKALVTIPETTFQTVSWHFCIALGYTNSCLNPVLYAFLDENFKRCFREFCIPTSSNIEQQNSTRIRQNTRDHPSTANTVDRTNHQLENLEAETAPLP

rKOR [11] = molecular target: T5, rKOR; assay: cell-based; details: for Emax: HEK-293T, read-out: Emax% G protein activation (BRET) rKOR
KOR [12] = molecular target: T4, KOR; assay: cell-based; details: for Emax: HTLA, read-out: Emax% arrestin recruitment (Tango) hKOR
mDOR [13] = molecular target: T2, mDOR; assay: biochemical; details: read-out: Emax mDOR [35S]GTPγS
mMOR [14] = molecular target: T1, mMOR; assay: biochemical
mKOR [15] = molecular target: T7, mKOR (Mus musculus, UniProt P33534); assay: biochemical
T7 sequence (P33534 whole entry): as the sequence (P34975 whole entry) above, with E11D, A17S, P51S, V308A counted along it

Y312W-hKOR = Y312W-hKOR (Homo sapiens, UniProt P41145, Y312W); assay: cell-based; details: read-out: Emax% cAMP inhibition Y312W-hKOR
Sequence of Y312W-hKOR (P41145 whole entry Y312W): as the sequence (P41145 whole entry) above, with Y312W counted along it

mKOR [16] = molecular target: T7, mKOR; assay: biochemical; details: for EC50: EC50 mKOR [35S]GTPγS, ± SEM; for Emax: read-out: Emax mKOR [35S]GTPγS
mMOR [17] = molecular target: T1, mMOR; assay: cell-based; parameters: expressed in transfected cells; host or cells: HEK-293T
MOR [18] = molecular target: T6, MOR; assay: cell-based; details: for Emax: HEK-293T, read-out: Emax% cAMP inhibition hMOR
KOR [19] = molecular target: T4, KOR; assay: cell-based; details: for EC50: EC50 cAMP inhibition hKOR
MOR [20] = molecular target: T6, MOR; assay: cell-based
mDOR [21] = molecular target: T2, mDOR; assay: cell-based
rKOR [22] = molecular target: T5, rKOR
rKOR [23] = molecular target: T5, rKOR; assay: cell-based; details: HEK-293T, read-out: Emax% arrestin recruitment (BRET) rKOR
mMOR [24] = molecular target: T1, mMOR; type: cell-based; parameters: expressed in transfected cells; host or cells: HEK-293T
MOR [25] = molecular target: T6, MOR; remark: listed apart in the source
[26] = DOR KO mice, 100 nmol i.c.v., 40 min, single mice and mean (n=8)
[27] = DOR KO mice, 100 nmol i.c.v., 110 min, single mice and mean (n=8)
[28] = MOR KO mice, 100 nmol i.c.v., 60 min, single mice and mean (n=8)
[29] = MOR KO mice, 100 nmol i.c.v., 70 min, single mice and mean (n=8)
[30] = MOR KO mice, 100 nmol i.c.v., 80 min, single mice and mean (n=8)
[31] = MP1207 30 nmol icv, MP1208 35 nmol icv
[32] = EC50 arrestin recruitment (Tango) hKOR

T1 sequence (P42866 whole entry): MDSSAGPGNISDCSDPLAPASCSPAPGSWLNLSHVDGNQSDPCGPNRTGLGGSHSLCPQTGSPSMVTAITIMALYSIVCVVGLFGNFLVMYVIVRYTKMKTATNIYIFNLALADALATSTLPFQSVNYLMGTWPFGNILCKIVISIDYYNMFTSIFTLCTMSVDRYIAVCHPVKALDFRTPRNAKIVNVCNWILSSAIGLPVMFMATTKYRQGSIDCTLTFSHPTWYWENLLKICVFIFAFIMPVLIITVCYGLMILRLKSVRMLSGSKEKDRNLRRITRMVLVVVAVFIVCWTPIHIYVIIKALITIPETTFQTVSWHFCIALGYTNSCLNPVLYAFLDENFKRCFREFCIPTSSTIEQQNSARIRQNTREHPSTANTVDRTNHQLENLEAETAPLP

Compound: N=C(N)NCc1cccc(C(=O)N[C@@H]2CCC3C4Cc5ccc(O)c6c5[C@@]3(CCN4CC3CC3)C2O6)c1 (stereo partly drawn) [MP1208, N-((7R,12bS)−3-(Cyclopropylmethyl)−9-hydroxy-2,3,4,4a,5,6,7,7a-octahydro-1H-4,12-methanobenzofuro[3,2-e]isoquinolin-7-yl)−3-(guanidinomethyl)benzamide]
- EC50 (mMOR [1]): 1.1 nM and 1.13 nM
- Emax (mMOR [1]): 54 ± 0.7%
- selectivity for MOR and KOR over DOR (mDOR [2]): more than 40 fold
- EC50 (DOR [3]): 2.49 nM
- Emax (DOR [3]): 39 ± 1.8%
- EC50 (mMOR [4]): 2.27 nM
- Emax (mMOR [4]): 41 ± 3%
- ΔΔlog RA (cAMP-Tango) hKOR (KOR [5]): 1.35±0.022
- Bias factor (cAMP-Tango) hKOR (KOR [5]): 22
- Log RA cAMP hKOR (KOR [5]): 9.83±0.004
- LogRA Tango hKOR (KOR [5]): 7.447±0.020
- ΔlogRA Tango hKOR (KOR [5]): -0.697±0.022
- ΔlogRA cAMP hKOR (KOR [5]): 0.65±0.005
- arrestin recruitment at rKOR (in words) (rKOR [6]): No recruitment of βarrestin-2
- 30 min (tail-withdrawal latency) ([7]; DOR KO mice, 100 nmol i.c.v., 30 min, single mice and mean (n=8)): 15 s and 8 s and 14.125 s
- 40 min (tail-withdrawal latency) [7, 26]: 15 s and 14.7 s and 12.1 s and 14.6 s
- %A-40 min (% antinociception) [7, 26]: 100% and 97.83% and 77.34% and 96.8962%
- %A-100 min (% antinociception) ([7]; DOR KO mice, 100 nmol i.c.v., 100 min, single mice and mean (n=8)): 0% and 3.7% and 0.72% and 6.25% and 1.334%
- 110 min (tail-withdrawal latency) [7, 27]: 1.4 s and 1.9 s and 1.3 s and 1.6 s and 1.5 s and 2.2 s and 1.5625 s
- %A-110 min (% antinociception) [7, 27]: 0% and 2.96% and 2.9% and 0.7325%
- 60 min (tail-withdrawal latency) [7, 28]: 1.3 s and 1.2 s and 1.5 s and 1.7 s and 1.4 s and 1.4375 s
- %A-60 min (% antinociception) [7, 28]: 0% and 2.17% and 3.62% and 2.16% and 1.446%
- 70 min (tail-withdrawal latency) [7, 29]: 1.3 s and 1.4 s and 1.8 s and 1.2 s and 1.35 s
- %A-70 min (% antinociception) [7, 29]: 0% and 0.72% and 2.94% and 0.7275%
- 80 min (tail-withdrawal latency) [7, 30]: 1.3 s and 1.1 s and 1.9 s and 1.2 s and 1.2875 s
- %A-80 min (% antinociception) [7, 30]: 0% and 5.07% and 0.72% and 0.7238%
- antinociception in DOR KO mice vs WT [7, 31]: remained intact
- antinociception in KOR KO mice vs WT [7, 31]: attenuated
- antinociception in MOR KO mice vs WT [7, 31]: attenuated
- EC50 (DOR [8]; EC50 arrestin recruitment hDOR): 3620 nM
- Emax (DOR [8]): 62 ± 16.7%
- EC50 (DOR [8]; pEC50 arrestin recruitment hDOR, ± SEM): 3160 nM
- EC50 (mDOR [9]): 26.6 nM
- Emax (mDOR [9]): 58 ± 3.3%
- arrestin recruitment at hMOR (in words) (MOR [10]): completely abolished
- EC50 (rKOR [11]): 1.07 nM
- Emax (rKOR [11]): 40 ± 2.4%
- EC50 (KOR [12]; [32]): 16.4 nM
- Emax (KOR [12]): 48 ± 2.4%
- EC50 (KOR [12]; pEC50 arrestin recruitment (Tango) hKOR, ± SEM): 16.2 nM
- Emax (mDOR [13]): 10 to 15%
- Ki (mMOR [14]): 0.34 ± 0.01 nM
- Ki (mKOR [15]): 0.28 ± 0.02 nM
- Emax (Y312W-hKOR): 97 ± 1%
- EC50 (mKOR [16]): 1.4 nM and 1.36 nM
- Emax (mKOR [16]): 43 ± 0.8%
- arrestin recruitment at mMOR (in words) (mMOR [17]): No recruitment of βarrestin-2
- Emax (MOR [18]): 42 ± 1.3%
- EC50 (KOR [19]): 0.14 nM
- Emax (KOR [19]; HEK-293T, read-out: Emax% cAMP inhibition hKOR): 96 ± 1.9%

Compound: O=C(NC1C=CC2C3Cc4ccc(O)c5c4C2(CCN3CC2CC2)C1O5)c1cccc(I)c1 (stereo not drawn) [MP1104]
- EC50 (mMOR [1]): 0.21 ± 0.03 nM
- Emax (mMOR [1]): 103 ± 2%
- EC50 (DOR [3]): 0.4 nM
- Emax (DOR [3]): 99 ± 1.1%
- EC50 (MOR [20]): 0.573 nM
- Emax (MOR [20]; HTLA, read-out: Emax% arrestin recruitment (Tango) hMOR): 90 ± 2.28%
- EC50 (mMOR [4]): 0.66 nM
- Emax (mMOR [4]): 62 ± 2%
- ΔΔlog RA (cAMP-Tango) hKOR (KOR [5]): -0.81±0.055
- Bias factor (cAMP-Tango) hKOR (KOR [5]): 0.15
- Log RA cAMP hKOR (KOR [5]): 11.44±0.034
- LogRA Tango hKOR (KOR [5]): 10.45±0.019
- ΔlogRA Tango hKOR (KOR [5]): 2.16±0.027
- ΔlogRA cAMP hKOR (KOR [5]): 1.35±0.048
- EC50 (mDOR [21]; EC50 arrestin recruitment (BRET) mDOR): 26 nM
- Emax (mDOR [21]; HEK-293T, read-out: Emax% arrestin recruitment (BRET) mDOR): 40 ± 1.7%
- EC50 (DOR [8]; EC50 arrestin recruitment hDOR): 3.73 nM
- Emax (DOR [8]): 189 ± 5.5%
- Log RA BRET-G rKOR (rKOR [22]): 10.07±0.047
- LogRA BRET-Arr rKOR (rKOR [22]): 8.84±0.033
- ΔΔlog RA (BRETG-BRETArr) rKOR (rKOR [22]): -0.64±0.079
- Bias factor (BRETG-BRETArr) rKOR (rKOR [22]; vs U50,488h): 0.23
- ΔlogRA BRET-G rKOR (rKOR [22]; vs U50,488h): 1.067±0.064
- ΔlogRA BRET-arr rKOR (rKOR [22]; vs U50,488h): 1.702±0.047
- EC50 (mDOR [9]): 1.4 nM
- Emax (mDOR [9]): 91 ± 1.7%
- Emax (rKOR [11]): 93 ± 1%
- EC50 (KOR [12]; [32]): 0.0394 nM
- Emax (KOR [12]): 117 ± 2%
- Emax (rKOR [23]): 89 ± 2.6%
- Bias factor (BRETG-BRETArr) mMOR (mMOR [24]): 0.11
- Log RA BRET-G mMOR (mMOR [24]): 8.917±0.12
- LogRA BRET-Arr mMOR (mMOR [24]): 9.196±0.06
- ΔlogRA BRET-G mMOR (mMOR [24]): 0.357±0.173
- ΔlogRA BRET-arr mMOR (mMOR [24]): 1.323±0.09
- ΔΔlog RA (BRETG-BRETArr) mMOR (mMOR [24]): -0.966±0.195
- Emax (mDOR [13]): 88%
- Ki (mMOR [14]): 0.021 nM
- Ki (mKOR [15]): 0.0064 nM
- Bias factor (cAMP-Tango) hMOR (MOR [25]): 0.58
- Log RA cAMP hMOR (MOR [25]): 10.12±0.009
- LogRA Tango hMOR (MOR [25]): 9.18±0.013
- ΔlogRA Tango hMOR (MOR [25]): 1.26±0.019
- ΔlogRA cAMP hMOR (MOR [25]): 1.018±0.012
- ΔΔlog RA (cAMP-Tango) hMOR (MOR [25]): -0.24±0.022
- EC50 (mKOR [16]): 0.027 ± 0.002 nM
- Emax (mKOR [16]): 104 ± 2%
- EC50 (mMOR [17]): 0.285 nM
- Emax (mMOR [17]; HEK-293T, read-out: Emax% arrestin recruitment (BRET) mMOR): 53 ± 1.6%
- EC50 (MOR [18]; EC50 cAMP inhibition hMOR): 0.074 nM
- Emax (MOR [18]): 94 ± 1%
- EC50 (KOR [19]): 0.00327 nM
